These results are taken from patent US9675592B2, “Methods and compositions for bacteria infections” (priority 2013, dated 2017).

Test [1] concerns test strain 923 pPvra-lux. The experiment in a line: Secondary screen / synergy confirmation of Top 40, relative growth with oxacillin. The format is cell-based, Staphylococcus aureus. Conditions: Top 40 library, compound at maximum non-GI conc. The method, then:
In the secondary screen each microtiter plate contained either cells in TSB alone (16 replicates), cells with oxacillin (2 μg/mL, 31 replicates), or cells with test compound and oxacillin (2 μg/mL, 49 wells). Each compound was assayed in four separate biological replicates.
Synergy Confirmation of “Top 40”. […]

The test system of test [2] is vraSR promoter (Pvra-lux reporter in strain 923). The format is cell-based, Staphylococcus aureus. Conditions: for RL Ox avg: Top 40 library, with oxacillin, compound at maximum non-GI conc; for vraSR repressing synergist: overall class from syn and rep. The method, then: In the secondary screen each microtiter plate contained either cells in TSB alone (16 replicates), cells with oxacillin (2 μg/mL, 31 replicates), or cells with test compound and oxacillin (2 μg/mL, 49 wells). Each compound was assayed in four separate biological replicates. […]

Another test relates to multiple strains of MRSA. The experiment in a line: MICs (minimal inhibitory concentrations) vs multiple strains of MRSA. Type of test: cell-based, Staphylococcus aureus.
The test system of test [3] is vraSR promoter (Pvra-lux reporter in strain 923). The experiment in a line: Primary screen, relative luminescence (vraSR expression).
Test [4] relates to test strain (923 pPvra-lux). The experiment in a line: Growth inhibition by compound alone (maximum non-growth-inhibitory concentration). Particulars: compound alone; maximum concentration where it did NOT inhibit growth. Type of test: cell-based, Staphylococcus aureus.
In test [5] the test system is test strain 923 pPvra-lux (USA300 MRSA). Kind of test: Primary screen, relative growth in presence of oxacillin. Particulars: compound 10 μM with oxacillin 2 μg/mL, absorbance 24 h, <0.50 = dead cells = hit.
The mark [6] stands for this setting: isolate 923, SCCmec IV, ST 8, compound at 2 mg/L.
Setting [7] is: isolate 1176, SCCmec II, ST 231, compound at 2 mg/L.
Setting [8] is: isolate 2169, SCCmec IV, ST 72, compound at 2 mg/L.
Where [9] appears, read: isolate 8004-01, SCCmec III, ST 239, compound at 2 mg/L.
The mark [10] stands for this setting: isolate 8010-01, SCCmec IV, ST 8, compound at 2 mg/L.
Where [11] appears, read: isolate 8227-01, SCCmec IV, ST 87, compound at 2 mg/L.
The mark [12] stands for this setting: isolate 11095, SCCmec II, ST 105, compound at 2 mg/L.
Setting [13] is: isolate 13113, SCCmec II, ST 5, compound at 2 mg/L.
Where [14] appears, read: isolate 13354, SCCmec IV, ST 5, compound at 2 mg/L.
Setting [15] is: isolate 14315, SCCmec IV, ST 1, compound at 2 mg/L.
The mark [16] stands for this setting: isolate Q2461, SCCmec VT, ST 59, compound at 2 mg/L.
Setting [17] is: primary screen, compound 10 μM with oxacillin 2 μg/mL, <0.50 = vraSR repressed = hit.

Read-outs that look alike come from different tables or passages of the source.

For the compound `O=C(Nc1ccc(Cl)c(Cl)c1)Nc1ccc2cn[nH]c2c1` [F5882-3050], the “RG Ox avg” value in test [1] is on record as 0.02. Also, the “RL Ox avg” value in test [2] came out at 0.07. In test [2], the vraSR repressing synergist was found to be 1. confirmed. Also, the “Ox MIC in presence of compound” value in the test with multiple strains of MRSA (setting [6]) was <0.25 mg/L; in the test with multiple strains of MRSA (setting [7]), <0.5 mg/L; in the test with multiple strains of MRSA (setting [8]), <0.25 mg/L; in the test on multiple strains of MRSA (setting [9]), 32 mg/L; in the test with multiple strains of MRSA (setting [10]), <0.25 mg/L; in the test on multiple strains of MRSA (setting [11]), <0.06 mg/L. The “Ox MIC in presence of compound” value is listed as <2 mg/L with multiple strains of MRSA (setting [12]); <0.13 mg/L in the test on multiple strains of MRSA (setting [13]); <0.13 mg/L in the test on multiple strains of MRSA (setting [14]); <0.5 mg/L with multiple strains of MRSA (setting [15]); 0.5 mg/L in the test with multiple strains of MRSA (setting [16]). Also, the “RL avg (relative luminescence)” value in test [3] (setting [17]) is given as 0.25. Moreover, in test [4], the “maximum non-GI conc” value came out at 400 µg/mL. Further, the “RG avg (relative growth)” value in test [5] amounted to 0.39.

For `Fc1cccc(Nc2nc(Nc3ccc(F)c(Cl)c3)nc(N3CCOCC3)n2)c1` [F2703-0396], the “RG Ox avg” value in test [1] is 0.01. The “RL Ox avg” value in test [2] is on record as 0.34. Further, the vraSR repressing synergist in test [2] stood at 1. confirmed. The “Ox MIC in presence of compound” value with multiple strains of MRSA (setting [6]) was <0.25 mg/L; in the test on multiple strains of MRSA (setting [7]), <0.5 mg/L; in the test with multiple strains of MRSA (setting [8]) it was <0.25 mg/L; in the test with multiple strains of MRSA (setting [9]), 64 mg/L; with multiple strains of MRSA (setting [10]), <0.25 mg/L; in the test on multiple strains of MRSA (setting [11]) it was <0.06 mg/L. In addition, the “Ox MIC in presence of compound” value in the test on multiple strains of MRSA (setting [12]) is <2 mg/L; in the test on multiple strains of MRSA (setting [13]) it was <0.13 mg/L; with multiple strains of MRSA (setting [14]), <0.13 mg/L; in the test with multiple strains of MRSA (setting [15]), <0.5 mg/L; in the test with multiple strains of MRSA (setting [16]), <0.13 mg/L. In addition, the “RL avg (relative luminescence)” value in test [3] (setting [17]) stood at 0.19. In addition, the “maximum non-GI conc” value in test [4] came out at 400 µg/mL. The “RG avg (relative growth)” value in test [5] is reported as 0.06.

Take `Cc1ccc(S(=O)(=O)Nc2ccccc2C(=O)Nc2nc3c(C)ccc(C)c3s2)cc1` [F1813-0712]: the “RG Ox avg” value in test [1] came to 0.71. Besides, the “RL Ox avg” value in test [2] turned out to be 0.20. In addition, the vraSR repressing synergist in test [2] amounted to 2. possible. The “Ox MIC in presence of compound” value in the test with multiple strains of MRSA (isolate 923, SCCmec IV, ST 8, compound at 4 mg/L) amounted to 4 mg/L; with multiple strains of MRSA (isolate 1176, SCCmec II, ST 231, compound at 4 mg/L) it was 16 mg/L; in the test with multiple strains of MRSA (isolate 2169, SCCmec IV, ST 72, compound at 4 mg/L), 8 mg/L; with multiple strains of MRSA (isolate 8004-01, SCCmec III, ST 239, compound at 4 mg/L), 512 mg/L; with multiple strains of MRSA (isolate 8010-01, SCCmec IV, ST 8, compound at 4 mg/L), 16 mg/L; in the test with multiple strains of MRSA (isolate 8227-01, SCCmec IV, ST 87, compound at 4 mg/L), 0.5 mg/L. Further, the “Ox MIC in presence of compound” value in the test on multiple strains of MRSA (isolate 11095, SCCmec II, ST 105, compound at 4 mg/L) stood at 256 mg/L; with multiple strains of MRSA (isolate 13113, SCCmec II, ST 5, compound at 4 mg/L), 16 mg/L; in the test on multiple strains of MRSA (isolate 13354, SCCmec IV, ST 5, compound at 4 mg/L), 8 mg/L; with multiple strains of MRSA (isolate 14315, SCCmec IV, ST 1, compound at 4 mg/L), 16 mg/L; with multiple strains of MRSA (isolate Q2461, SCCmec VT, ST 59, compound at 4 mg/L) it was 16 mg/L. In addition, the “RL avg (relative luminescence)” value in test [3] was found to be 0.00. The “maximum non-GI conc” value in test [4] worked out at 400 µg/mL. Also, the “RG avg (relative growth)” value in test [5] is listed as −0.01.

On to `Cc1ccc(-c2nnc(NC(=O)c3ccc(S(=O)(=O)N4CCc5ccccc5C4)cc3)o2)c(C)c1` [F2518-0213], for which the “RG Ox avg” value in test [1] is 1.14. In test [2], the “RL Ox avg” value is given as 0.33 and the vraSR repressing synergist is 3. no effect. In addition, the “RL avg (relative luminescence)” value in test [3] (setting [17]) was −0.01. In addition, the “maximum non-GI conc” value in test [4] stood at 4 µg/mL. Also, the “RG avg (relative growth)” value in test [5] came out at 0.01.

In the case of `O=C(Nc1nnc(-c2ccc(OC(F)(F)F)cc2)o1)C1(c2cccs2)CCCC1` [F2517-0863], in test [1], the “RG Ox avg” value stood at 0.92. Further, in test [2], the “RL Ox avg” value amounted to 1.18 and the vraSR repressing synergist is 3. no effect. In test [3] (setting [17]), the “RL avg (relative luminescence)” value is listed as −0.06. In test [4], the “maximum non-GI conc” value is 4 µg/mL. In test [5], the “RG avg (relative growth)” value was 0.02.

As for `CC1CCN(C(C)CNC(=O)Nc2ccc(C(F)(F)F)cc2)CC1` (stereo not drawn) [F2438-0002], the “RG Ox avg” value in test [1] was 0.95. Also, in test [2], the “RL Ox avg” value is listed as 0.62 and the vraSR repressing synergist is listed as 3. no effect. Moreover, the “RL avg (relative luminescence)” value in test [3] (setting [17]) was −0.18. Further, in test [4], the “maximum non-GI conc” value came to 40 µg/mL. In addition, in test [5], the “RG avg (relative growth)” value is −0.02.

For the compound `CN1CCN(c2nc(Nc3ccc(SC(F)F)cc3)c3cnn(-c4ccccc4)c3n2)CC1` [F2090-0579], the “RG Ox avg” value in test [1] stood at 0.30. In test [2], the “RL Ox avg” value is reported as 0.11 and the vraSR repressing synergist turned out to be 1. confirmed. Also, the “RL avg (relative luminescence)” value in test [3] (setting [17]) amounted to 0.04. Further, the “maximum non-GI conc” value in test [4] was determined as 400 µg/mL. The “RG avg (relative growth)” value in test [5] was determined as 0.00.

`O=C(Nc1ccc(Cl)c(Cl)c1)N(Cc1ccsc1)Cc1ccco1` [F5854-2599]: the “RG Ox avg” value in test [1] is listed as 1.01. Moreover, in test [2], the “RL Ox avg” value turned out to be 0.54 and the vraSR repressing synergist was 3. no effect. Further, the “RL avg (relative luminescence)” value in test [3] (setting [17]) was −0.06. The “maximum non-GI conc” value in test [4] came out at 40 µg/mL. In addition, the “RG avg (relative growth)” value in test [5] is listed as 0.01.

On to `O=S(=O)(Nc1cccc(-c2nc3ccccc3s2)c1)c1ccc(F)c(Cl)c1` [F3394-0078], for which, in test [1], the “RG Ox avg” value was found to be 1.24. In test [2], the “RL Ox avg” value was determined as 0.41 and the vraSR repressing synergist was found to be 3. no effect. Besides, the “RL avg (relative luminescence)” value in test [3] (setting [17]) is listed as 0.26. Also, in test [4], the “maximum non-GI conc” value was 40 µg/mL. Also, the “RG avg (relative growth)” value in test [5] stood at 0.26.

As to `Fc1ccc(-c2csc3ncnc(Sc4nnnn4-c4ccccc4)c23)cc1` [F1142-4245], in test [1], the “RG Ox avg” value came out at 0.25. Besides, in test [2], the “RL Ox avg” value is 0.04 and the vraSR repressing synergist stood at 1. confirmed. Moreover, the “RL avg (relative luminescence)” value in test [3] (setting [17]) was determined as 0.36. In test [4], the “maximum non-GI conc” value is 400 µg/mL. In test [5], the “RG avg (relative growth)” value was found to be 0.03.

`O=C(Nc1nnc(C2=COCCO2)o1)c1cccc(Br)c1` [F0608-0146]: the “RG Ox avg” value in test [1] was found to be 0.96. Besides, in test [2], the “RL Ox avg” value worked out at 1.11 and the vraSR repressing synergist is 3. no effect. Further, the “RL avg (relative luminescence)” value in test [3] (setting [17]) is given as −0.12. The “maximum non-GI conc” value in test [4] was 40 µg/mL. For the same compound, in test [5], the “RG avg (relative growth)” value is −0.05.

Regarding `O=C(Nc1ccccc1-c1nc2ccccc2[nH]1)c1ccccc1Br` [F0015-0758], the “RG Ox avg” value in test [1] turned out to be 0.92. In addition, in test [2], the “RL Ox avg” value was 0.25 and the vraSR repressing synergist is 3. no effect. Moreover, in test [3] (setting [17]), the “RL avg (relative luminescence)” value came to 0.33. For the same compound, the “maximum non-GI conc” value in test [4] stood at 400 µg/mL. Also, the “RG avg (relative growth)” value in test [5] is on record as −0.06.

In the case of `CC(=O)Nc1ccc(Nc2cc(C(C)(C)C)nc3c(-c4ccccc4)c(C)nn23)cc1` [F3348-0030], the “RG Ox avg” value in test [1] was 0.01. Further, in test [2], the “RL Ox avg” value was found to be 0.05 and the vraSR repressing synergist is recorded as 1. confirmed. In addition, the “RL avg (relative luminescence)” value in test [3] (setting [17]) worked out at 0.12. Also, the “maximum non-GI conc” value in test [4] is 400 µg/mL. Further, the “RG avg (relative growth)” value in test [5] turned out to be 0.05.

`CN(C)CCCNc1cc(C(C)(C)C)nc2c(-c3ccc(Cl)cc3)cnn12` [F3348-0373]: in test [1], the “RG Ox avg” value stood at 0.99. Moreover, in test [2], the “RL Ox avg” value is reported as 0.80 and the vraSR repressing synergist was 3. no effect. In addition, in test [3] (setting [17]), the “RL avg (relative luminescence)” value was 0.41. The “maximum non-GI conc” value in test [4] was 40 µg/mL. Also, in test [5], the “RG avg (relative growth)” value is 0.05.
